In ChEMBL document CHEMBL1149927, “Synthesis of 7-methoxy-2-(1,3-dithiolan-2-ylidene)cephem sulphones. A new series of human leukocyte elastase inhibitors” (Bioorg Med Chem Lett, 1996):

What follows are molecules tested against T1, Neutrophil elastase (Homo sapiens, UniProt P08246) (assay: Inhibitory activity against human sputum elastase (HSE)).
T1 sequence (P08246 whole entry): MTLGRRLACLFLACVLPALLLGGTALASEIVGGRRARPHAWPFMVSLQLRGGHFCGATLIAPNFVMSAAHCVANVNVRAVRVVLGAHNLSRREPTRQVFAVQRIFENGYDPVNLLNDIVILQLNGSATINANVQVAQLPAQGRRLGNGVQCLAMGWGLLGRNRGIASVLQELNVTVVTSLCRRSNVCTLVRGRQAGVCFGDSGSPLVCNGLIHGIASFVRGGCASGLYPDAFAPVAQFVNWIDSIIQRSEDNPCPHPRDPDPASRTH

Row | SMILES | IC50 [nM]
1 | CO[C@H]1C(=O)N2C(C(=O)OC(C)(C)C)=C(C)C(=C(SC)SC)S(=O)(=O)C12 (stereo not given in full) | 74
2 | CO[C@H]1C(=O)N2C(C(=O)OC(C)(C)C)=C(C)C(=C3SCC(OC(C)=O)CS3)S(=O)(=O)C12 (stereo not given in full) | 320
3 | CO[C@H]1C(=O)N2C(C(=O)OC(C)(C)C)=C(C)C(=C3SCC(O)CS3)S(=O)(=O)C12 (stereo not given in full) | 330

Next, values leading:

Row | IC50 [nM] | SMILES
4 | 1800 | CO[C@H]1C(=O)N2C(C(=O)OC(C)(C)C)=C(C)CS(=O)(=O)C12 (stereo not given in full)
5 | 380 | CO[C@H]1C(=O)N2C(C(=O)OC(C)(C)C)=C(C)C(=C3SCCS3)S(=O)(=O)C12 (stereo not given in full)
